Assay results from patent US10189807B2, “Tetrahydrothiophene-based GABA aminotransferase inactivators” (Northwestern University, priority 2015, dated 2019).
Where a name gives a salt, the structure may show the parent alone. Read-outs that look alike come from different tables or passages of the source. Each block holds one molecule with its values, some of them ahead of it.

Experiments:
GABA-AT [1] = molecular target: T1, GABA-AT (Sus scrofa (Pig), UniProt P80147); assay: Time-dependent inhibition (inactivation) of GABA-AT, Kitz and Wilson replot; type: biochemical; conditions: preliminary in vitro results
Protocol: (§1) GABA-AT was isolated and purified from pig brain by a published procedure.
GABA-AT (17.5 μL) was incubated in the presence of varying concentrations of each compound (70 μL final volume) at 25° C. in 50 mM potassium pyrophosphate buffer solution, pH 6.5, containing 5 mM α-ketoglutarate and 1 mM β-mercaptoethanol. […] The relative enzyme activity was determined by normalizing the rate of increasing absorbance at 340 nm to a control. A Kitz and Wilson replot was used to determine the kinetic constants KI and kinact.

GABA-AT [2] = molecular target: T1, GABA-AT; assay: Inhibition of GABA-AT, coupled assay with SSDH; type: biochemical
Protocol: as §1
Inhibition constants were determined by monitoring GABA-AT activity in the presence of 0-50 mM concentrations of synthesized analogues using a coupled assay with the enzyme succinic semialdehyde dehydrogenase (SSDH). The assay solution consisted of 10 mM GABA, 5 mM α ketoglutarate, 1 mM NADP^+, 5 mM β-mercaptoethanol, and excess SSDH in 50 mM potassium pyrophosphate buffer, pH 8.5. Enzyme activity was determined by observing the change in absorbance at 340 nm at 25° C. IC50 values were obtained using non-linear regression in GraphPad Prism5 software. Subsequent Ki values were determined using the Cheng-Prusoff relationship. (Yung-Chi, C.; Prusoff, W. H. Biochem. Pharmacol. 1973, 22, 3099-3108.)

infantile spasms = conditions: multiple-hit rat model of infantile spasms; cited from earlier work
GABA-AT [3] = conditions: prior art; cited from earlier work
[4] = test system: aspartate aminotransferase; conditions: off-target enzyme; cited from earlier work
CYP2B6 = CYP2B6 (Homo sapiens (Human), UniProt P20813); assay: Inhibition of microsomal cytochromes P450: CYP2B6; type: in vitro ADME; conditions: 10 μM, HLM, bupropion substrate, 10 min at 37° C.
Protocol: (§2) The experiments were performed by Eurofins Panlabs (Redmond, Wash. 98052, USA). CYP1A inhibition (HLM, phenacetin substrate), CYP2B6 inhibition (HLM, bupropion substrate), CYP2C8 inhibition (HLM, paclitaxel substrate), CYP2C9 inhibition (HLM, diclofenac substrate), CYP2C19 inhibition (HLM, omeprazole substrate), CYP2D6 inhibition (HLM, dextromethorphan substrate), and CYP3A inhibition (HLM, midazolam and testosterone substrates) were tested. The test concentration was 10 μM. The incubation time was 10 min at 37° C. The detection method was by HPLC-MS/MS. The experiments were duplicated, and the % inhibition of the control values was averaged (FIG. 10).

[5] = Metabolic stability in human liver microsomes; type: in vitro ADME; conditions: 0.1 μM, over 60 minutes at 37° C., LC-MS/MS
Protocol: The experiments were performed by Eurofins Panlabs (Redmond, Wash. 98052, USA). The test concentration of 17 was 0.1 μM. […] The detection method was by LC-MS/MS. Imipramine, propranolol, terfenadine, and verapamil were run in similar condition as controls.

CYP1A = CYP1A (Homo sapiens (Human), UniProt P05177); assay: Inhibition of microsomal cytochromes P450: CYP1A; type: in vitro ADME; conditions: 10 μM, HLM, phenacetin substrate, 10 min at 37° C.
Protocol: as §2

hERG channel = hERG channel (Homo sapiens (Human), UniProt Q12809); assay: Inhibition of the hERG channel, automated whole-cell patch clamp; type: cell-based; conditions: hERG CHO-K1 cell line; 0.1, 1 and 10 μM; 5 min at room temperature
Protocol: The experiments were performed by Eurofins Panlabs (Redmond, Wash. 98052, USA). hERG CHO-K1 cell line was used. The test concentrations were 0.1 μM, 1 μM, and 10 μM. The incubation time was 5 min at room temperature, cumulatively. The detection method used an automated whole-cell patch clamp. The experiments were duplicated, and the % inhibition of the tail current was averaged (FIG. 9).

CYP3A = assay: Inhibition of microsomal cytochromes P450: CYP3A; type: in vitro ADME, human; conditions: 10 μM, HLM, midazolam and testosterone substrates, 10 min at 37° C.
Protocol: as §2

CYP2C8 = CYP2C8 (Homo sapiens (Human), UniProt P10632); assay: Inhibition of microsomal cytochromes P450: CYP2C8; type: in vitro ADME; conditions: 10 μM, HLM, paclitaxel substrate, 10 min at 37° C.
Protocol: as §2

CYP2D6 = CYP2D6 (Homo sapiens (Human), UniProt P10635); assay: Inhibition of microsomal cytochromes P450: CYP2D6; type: in vitro ADME; conditions: 10 μM, HLM, dextromethorphan substrate, 10 min at 37° C.
Protocol: as §2

CYP2C19 = CYP2C19 (Homo sapiens (Human), UniProt P33261); assay: Inhibition of microsomal cytochromes P450: CYP2C19; type: in vitro ADME; conditions: 10 μM, HLM, omeprazole substrate, 10 min at 37° C.
Protocol: as §2

CYP2C9 = CYP2C9 (Homo sapiens (Human), UniProt P11712); assay: Inhibition of microsomal cytochromes P450: CYP2C9; type: in vitro ADME; conditions: 10 μM, HLM, diclofenac substrate, 10 min at 37° C.
Protocol: as §2

Plasma protein binding = type: in vitro ADME
[6] = competitive inhibition, read-out: Ki (competitive inhibitor of GABA-AT)

T1 sequence (P80147 29-500 limits assumed): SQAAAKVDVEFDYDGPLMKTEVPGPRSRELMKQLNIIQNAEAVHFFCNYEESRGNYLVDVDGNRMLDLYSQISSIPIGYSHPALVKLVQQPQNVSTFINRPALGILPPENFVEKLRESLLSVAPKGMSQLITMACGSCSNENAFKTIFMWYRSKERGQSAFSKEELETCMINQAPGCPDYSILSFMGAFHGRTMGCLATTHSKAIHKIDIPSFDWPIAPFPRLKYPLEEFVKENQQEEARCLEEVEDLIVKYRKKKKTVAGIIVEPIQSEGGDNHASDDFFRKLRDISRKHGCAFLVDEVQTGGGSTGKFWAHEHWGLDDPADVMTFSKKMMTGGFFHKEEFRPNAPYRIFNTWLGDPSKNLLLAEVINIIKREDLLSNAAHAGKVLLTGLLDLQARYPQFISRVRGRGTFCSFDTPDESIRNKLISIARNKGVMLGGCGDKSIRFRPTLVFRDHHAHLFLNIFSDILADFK
Sequence of CYP2C19 (P33261 whole entry): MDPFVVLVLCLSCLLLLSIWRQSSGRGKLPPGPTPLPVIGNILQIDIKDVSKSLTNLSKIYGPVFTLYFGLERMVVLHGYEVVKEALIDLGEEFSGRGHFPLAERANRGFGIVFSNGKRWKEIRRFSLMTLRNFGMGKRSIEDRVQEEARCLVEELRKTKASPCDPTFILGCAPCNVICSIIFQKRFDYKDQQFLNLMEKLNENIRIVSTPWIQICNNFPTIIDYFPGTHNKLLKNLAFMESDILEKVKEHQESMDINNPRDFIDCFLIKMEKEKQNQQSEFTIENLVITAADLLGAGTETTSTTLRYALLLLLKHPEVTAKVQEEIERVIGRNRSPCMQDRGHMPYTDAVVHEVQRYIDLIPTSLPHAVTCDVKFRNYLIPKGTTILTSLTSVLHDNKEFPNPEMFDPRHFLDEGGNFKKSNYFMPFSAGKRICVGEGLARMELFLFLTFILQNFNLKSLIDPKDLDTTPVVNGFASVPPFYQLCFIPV
Sequence of CYP2C8 (P10632 whole entry): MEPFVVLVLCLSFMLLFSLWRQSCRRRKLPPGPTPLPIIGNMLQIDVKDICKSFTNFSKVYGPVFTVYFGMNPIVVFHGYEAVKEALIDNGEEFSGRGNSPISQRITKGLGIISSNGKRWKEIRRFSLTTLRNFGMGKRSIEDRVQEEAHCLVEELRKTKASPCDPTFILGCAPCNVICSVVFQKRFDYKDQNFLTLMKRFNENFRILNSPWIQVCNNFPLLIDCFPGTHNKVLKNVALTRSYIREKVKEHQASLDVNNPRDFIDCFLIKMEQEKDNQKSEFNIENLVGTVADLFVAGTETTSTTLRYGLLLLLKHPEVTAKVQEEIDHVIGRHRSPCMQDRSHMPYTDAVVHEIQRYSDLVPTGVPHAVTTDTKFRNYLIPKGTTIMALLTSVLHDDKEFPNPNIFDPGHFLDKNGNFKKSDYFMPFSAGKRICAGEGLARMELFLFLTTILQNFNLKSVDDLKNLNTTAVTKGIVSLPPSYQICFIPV
Sequence of CYP2C9 (P11712 whole entry): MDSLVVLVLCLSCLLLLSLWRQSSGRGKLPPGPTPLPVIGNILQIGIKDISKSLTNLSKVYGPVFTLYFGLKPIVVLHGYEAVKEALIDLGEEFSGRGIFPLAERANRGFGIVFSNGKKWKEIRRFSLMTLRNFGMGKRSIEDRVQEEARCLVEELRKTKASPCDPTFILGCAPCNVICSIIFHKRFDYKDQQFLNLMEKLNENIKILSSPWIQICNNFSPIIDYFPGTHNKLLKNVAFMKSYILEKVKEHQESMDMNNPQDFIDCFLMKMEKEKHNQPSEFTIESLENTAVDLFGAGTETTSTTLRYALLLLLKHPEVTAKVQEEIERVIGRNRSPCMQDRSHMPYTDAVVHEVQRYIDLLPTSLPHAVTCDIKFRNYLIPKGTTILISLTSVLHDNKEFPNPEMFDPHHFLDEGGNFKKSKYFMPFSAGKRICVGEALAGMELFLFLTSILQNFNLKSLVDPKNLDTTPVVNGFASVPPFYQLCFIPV
Sequence of CYP1A (P05177 whole entry): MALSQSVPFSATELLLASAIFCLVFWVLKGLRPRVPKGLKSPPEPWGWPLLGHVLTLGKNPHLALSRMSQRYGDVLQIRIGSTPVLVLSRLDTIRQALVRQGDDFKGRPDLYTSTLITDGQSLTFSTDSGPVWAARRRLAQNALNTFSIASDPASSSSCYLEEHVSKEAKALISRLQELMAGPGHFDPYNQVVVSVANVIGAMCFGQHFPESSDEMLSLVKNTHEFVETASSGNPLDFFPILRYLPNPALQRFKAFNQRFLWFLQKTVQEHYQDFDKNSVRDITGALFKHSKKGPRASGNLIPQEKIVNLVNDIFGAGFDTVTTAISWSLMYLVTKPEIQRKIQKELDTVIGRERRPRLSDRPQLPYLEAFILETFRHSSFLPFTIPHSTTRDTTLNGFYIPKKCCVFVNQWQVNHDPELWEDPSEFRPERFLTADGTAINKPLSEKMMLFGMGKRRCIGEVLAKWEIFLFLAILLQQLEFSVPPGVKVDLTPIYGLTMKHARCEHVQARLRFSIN
Sequence of CYP2B6 (P20813 whole entry): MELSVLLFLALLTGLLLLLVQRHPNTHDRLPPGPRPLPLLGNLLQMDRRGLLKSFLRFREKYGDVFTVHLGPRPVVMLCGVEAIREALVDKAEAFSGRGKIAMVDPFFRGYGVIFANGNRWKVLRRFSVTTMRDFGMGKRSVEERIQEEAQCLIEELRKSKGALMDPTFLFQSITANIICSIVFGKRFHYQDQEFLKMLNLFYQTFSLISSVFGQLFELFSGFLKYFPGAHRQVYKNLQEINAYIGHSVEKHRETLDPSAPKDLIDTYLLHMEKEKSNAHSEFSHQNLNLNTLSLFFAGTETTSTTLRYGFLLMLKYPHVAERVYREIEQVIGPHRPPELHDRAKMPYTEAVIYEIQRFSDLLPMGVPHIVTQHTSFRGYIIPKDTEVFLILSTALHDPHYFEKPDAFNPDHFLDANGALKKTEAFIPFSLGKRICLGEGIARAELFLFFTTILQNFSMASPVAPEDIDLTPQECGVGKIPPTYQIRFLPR
Sequence of hERG channel (Q12809 whole entry): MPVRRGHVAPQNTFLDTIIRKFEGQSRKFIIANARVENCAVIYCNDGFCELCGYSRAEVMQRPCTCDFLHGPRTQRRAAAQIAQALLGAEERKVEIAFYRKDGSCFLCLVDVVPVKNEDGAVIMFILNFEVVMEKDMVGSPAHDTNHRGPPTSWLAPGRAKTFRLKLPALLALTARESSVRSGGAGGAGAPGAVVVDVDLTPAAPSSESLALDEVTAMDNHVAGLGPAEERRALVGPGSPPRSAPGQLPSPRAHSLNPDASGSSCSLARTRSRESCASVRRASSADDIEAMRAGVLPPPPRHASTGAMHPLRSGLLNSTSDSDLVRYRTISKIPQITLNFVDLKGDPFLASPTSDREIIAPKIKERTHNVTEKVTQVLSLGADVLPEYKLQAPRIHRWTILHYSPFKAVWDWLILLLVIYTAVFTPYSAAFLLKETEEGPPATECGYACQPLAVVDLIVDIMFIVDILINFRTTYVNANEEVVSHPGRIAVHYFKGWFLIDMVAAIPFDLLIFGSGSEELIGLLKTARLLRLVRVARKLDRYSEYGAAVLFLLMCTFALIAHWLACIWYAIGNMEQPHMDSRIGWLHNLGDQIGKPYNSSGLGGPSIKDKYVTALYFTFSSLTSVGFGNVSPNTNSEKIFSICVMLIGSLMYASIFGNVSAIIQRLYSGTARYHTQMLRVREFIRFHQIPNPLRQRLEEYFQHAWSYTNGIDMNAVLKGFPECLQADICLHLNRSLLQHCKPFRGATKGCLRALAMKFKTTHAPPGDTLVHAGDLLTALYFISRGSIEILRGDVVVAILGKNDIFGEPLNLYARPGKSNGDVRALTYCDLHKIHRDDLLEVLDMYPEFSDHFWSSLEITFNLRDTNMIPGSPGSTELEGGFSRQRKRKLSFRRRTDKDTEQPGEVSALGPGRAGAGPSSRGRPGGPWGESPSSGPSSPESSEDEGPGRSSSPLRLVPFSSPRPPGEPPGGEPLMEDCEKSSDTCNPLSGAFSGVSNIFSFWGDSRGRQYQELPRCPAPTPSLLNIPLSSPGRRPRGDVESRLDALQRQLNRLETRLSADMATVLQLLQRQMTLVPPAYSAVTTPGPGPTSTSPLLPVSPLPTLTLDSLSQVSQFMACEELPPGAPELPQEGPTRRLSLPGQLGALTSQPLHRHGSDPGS
Sequence of CYP2D6 (P10635 whole entry): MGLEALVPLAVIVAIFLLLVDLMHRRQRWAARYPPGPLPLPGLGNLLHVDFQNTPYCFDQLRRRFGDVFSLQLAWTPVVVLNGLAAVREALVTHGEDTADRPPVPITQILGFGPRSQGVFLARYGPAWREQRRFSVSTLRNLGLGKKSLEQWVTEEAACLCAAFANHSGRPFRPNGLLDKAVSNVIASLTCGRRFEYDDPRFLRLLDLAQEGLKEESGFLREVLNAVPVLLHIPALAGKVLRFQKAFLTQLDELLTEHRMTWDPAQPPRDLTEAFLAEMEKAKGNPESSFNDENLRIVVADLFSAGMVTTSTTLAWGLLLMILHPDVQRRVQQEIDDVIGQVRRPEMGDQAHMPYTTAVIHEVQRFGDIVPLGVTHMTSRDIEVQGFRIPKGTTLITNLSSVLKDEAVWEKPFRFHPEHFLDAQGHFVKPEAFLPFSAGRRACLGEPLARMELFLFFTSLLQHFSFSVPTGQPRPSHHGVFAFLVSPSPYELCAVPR

Molecule: Cl.N[C@@H]1CS[C@@H](C(=O)O)C1 [Compound 18, (2R,4S)-4-Aminotetrahydrothiophene-2-carboxylic acid hydrochloride]
- Inactivation of GABA-AT (in words) (GABA-AT [1]): potent inactivators

Molecule: C=CC(N)CCC(=O)O (stereo not drawn) [vigabatrin]
- Duration of effective spasms suppression (infantile spasms): 1 days

Molecule: N[C@H]1C=C(C(=O)O)SC1 [(S)-4-Amino-4,5-dihydro-2-thiophenecarboxylic acid]
- Potency/inactivation of GABA-AT (in words) (GABA-AT [3]): known inactivator
- Inactivation or inhibition of aspartate aminotransferase [4]: inactivator

Molecule: N[C@H]1CC(C(=O)O)S(=O)(=O)C1 (mixture of isomers) [Compound 19, (4S)-4-Aminotetrahydrothiophene-2-carboxylic acid 1,1-dioxide hydrochloride]
- Ki (GABA-AT [2]; read-out: Ki (reversible inhibition)): 3200 ± 700 µM

Molecule: Cl.N[C@@H]1CS[C@H](C(=O)O)C1 [Compound 17, (2S,4S)-4-Aminotetrahydrothiophene-2-carboxylic acid hydrochloride]
- CYP2B6 inhibition (CYP2B6): did not inhibit or induce
- Inactivation of GABA-AT (in words) (GABA-AT [1]): potent inactivators
- metabolized in HLM [5]: less than 20%
- CYP1A inhibition (CYP1A): did not inhibit or induce
- Inhibition of the hERG channel (hERG channel): did not inhibit
- CYP3A inhibition (CYP3A): did not inhibit or induce
- CYP2C8 inhibition (CYP2C8): did not inhibit or induce
- CYP2D6 inhibition (CYP2D6): did not inhibit or induce
- CYP2C19 inhibition (CYP2C19): did not inhibit or induce
- CYP2C9 inhibition (CYP2C9): did not inhibit or induce
- fraction unbound (Plasma protein binding): 0.74

Molecule: N[C@@H]1CC(C(=O)O)S(=O)(=O)C1 (stereo partly drawn) [Compound 22]
- Ki (GABA-AT [2]; pH 8.5, 25° C., from IC50 by Cheng-Prusoff, read-out: Ki (reversible inhibition)): 7500 ± 700 µM

The remaining lines, values ahead:

- Ki (GABA-AT [2]; [6]): 430 µM
Molecule: mixture of (2S,4S)-4-aminotetrahydrofuran-2-carboxylic acid (40) and (2R,4R)-4-aminotetrahydrofuran-2-carboxylic acid (51) [mixture of enantiomers 40 and 51]

- Inactivation of GABA-AT (in words) (GABA-AT [1]): not an inactivator
- Ki (GABA-AT [2]; [6]): 870 µM
Molecule: N[C@@H]1CC[C@H](C(=O)O)C1 [Compound 39, (1S,3R)-3-aminocyclopentane-1-carboxylic acid]

- Ki (GABA-AT [2]; [6]): 1300 µM
Molecule: N[C@@H]1CN[C@H](C(=O)O)C1 [Compound 41, (2S,4S)-4-aminopyrrolidine-2-carboxylic acid]
